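Protocol summary: plate cells (96-well), add compound at 5 concentrations, incubate 48 h, interpolate endpoints linearly. GI50 marks 50% less growth.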 Calls of active or inactive are those of the source. No stated cut-off is given here; in the data, active = GI50 up to about 1.1 µM and inactive = higher.
What was measured:
Experiment in all cases: NCI-60 cell line screen, 48 h
[1] = test system: UO-31
[2] = test system: NCI-H522
[3] = test system: HOP-92
[4] = test system: SR
[5] = test system: SF-268
[6] = test system: Hs-578T
[7] = test system: HT-29
[8] = test system: NCI/ADR-RES
[9] = test system: SK-MEL-5
[10] = test system: MCF7
[11] = test system: OVCAR-5
[12] = test system: SNB-19
[13] = test system: SF-295
[14] = test system: HCC 2998
[15] = test system: RXF 393
[16] = test system: MDA-MB-435
[17] = test system: HL-60
[18] = test system: SNB-75
[19] = test system: T47D
[20] = test system: SK-MEL-2

| SMILES | GI50 [1] | GI50 [2] | GI50 [3] | GI50 [4] | GI50 [5] | GI50 [6] | GI50 [7] | GI50 [8] | GI50 [9] | GI50 [10] | GI50 [11] | GI50 [12] | GI50 [13] | GI50 [14] | GI50 [15] | GI50 [16] | GI50 [17] | GI50 [18] | GI50 [19] | GI50 [20] |
| --- | --- | --- | --- | --- | --- | --- | --- | --- | --- | --- | --- | --- | --- | --- | --- | --- | --- | --- | --- | --- |
| O=c1[nH]c(=O)n(CCOc2ccccc2)cc1Nc1ccccc1 | > 100 µM (inactive) | 6.11 µM (inactive) | 6.32 µM (inactive) | > 100 µM (inactive) | 43.3 µM (inactive) | 52.5 µM (inactive) | > 100 µM (inactive) | > 100 µM (inactive) | > 100 µM (inactive) | > 100 µM (inactive) | > 100 µM (inactive) | > 100 µM (inactive) | 41.8 µM (inactive) | > 100 µM (inactive) | 37.3 µM (inactive) | > 100 µM (inactive) | – | – | – | – |
| Cc1cccc2sc(NC(=O)c3cc([N+](=O)[O-])ccc3Cl)nc12 | 2.34 µM (inactive) | 1.78 µM (inactive) | 2.77 µM (inactive) | > 100 µM (inactive) | 3.13 µM (inactive) | – | 1.85 µM (inactive) | 2.76 µM (inactive) | 1.84 µM (inactive) | 1.68 µM (inactive) | 5.87 µM (inactive) | 7.78 µM (inactive) | 4.82 µM (inactive) | 9.33 µM (inactive) | 2.01 µM (inactive) | 2.67 µM (inactive) | 72.9 µM (inactive) | 1 µM (active) | 4.35 µM (inactive) | 4.46 µM (inactive) |
| COc1ccc(-c2cc(=O)c3cc(O)ccc3o2)c(OC)c1OC | – | 18.2 µM (inactive) | 32.4 µM (inactive) | 12.7 µM (inactive) | 24.8 µM (inactive) | – | 44.2 µM (inactive) | – | – | – | 20.2 µM (inactive) | 47.4 µM (inactive) | 24.7 µM (inactive) | 35.6 µM (inactive) | 28.2 µM (inactive) | – | 15.7 µM (inactive) | 23.1 µM (inactive) | – | 28.3 µM (inactive) |
| O=C(NNCc1ccc(Cl)cc1)Nc1cccc2ccccc12 | 84.1 µM (inactive) | 27.3 µM (inactive) | 29.3 µM (inactive) | > 100 µM (inactive) | 93.1 µM (inactive) | – | > 100 µM (inactive) | > 100 µM (inactive) | 76.2 µM (inactive) | 26.8 µM (inactive) | 94.6 µM (inactive) | > 100 µM (inactive) | 82 µM (inactive) | > 100 µM (inactive) | > 100 µM (inactive) | 52.6 µM (inactive) | > 100 µM (inactive) | > 100 µM (inactive) | 28.6 µM (inactive) | > 100 µM (inactive) |
| COc1ccc(Nc2nc3ccc(C(F)(F)F)cc3nc2C(=O)O)cc1 | – | – | 29.6 µM (inactive) | – | 37.7 µM (inactive) | – | 36.9 µM (inactive) | 29.9 µM (inactive) | 26.5 µM (inactive) | 36.6 µM (inactive) | 28.2 µM (inactive) | – | 23.6 µM (inactive) | 24 µM (inactive) | 22.9 µM (inactive) | 34.3 µM (inactive) | – | 34.1 µM (inactive) | 33.4 µM (inactive) | 43.9 µM (inactive) |
| CC1=NNC(=O)C1C1CC(c2c[nH]c3ccccc23)=NN(c2ccccc2)C1=O (configuration not stated) | > 100 µM (inactive) | 19.8 µM (inactive) | > 100 µM (inactive) | – | > 100 µM (inactive) | 29.8 µM (inactive) | > 100 µM (inactive) | 83.9 µM (inactive) | > 100 µM (inactive) | – | > 100 µM (inactive) | > 100 µM (inactive) | > 100 µM (inactive) | – | > 100 µM (inactive) | 55.1 µM (inactive) | 34.7 µM (inactive) | > 100 µM (inactive) | > 100 µM (inactive) | > 100 µM (inactive) |
| CC1=NC2(C(=O)O)C3(C(=O)O)N=C(C)OC3(C(F)(F)F)C2(C(F)(F)F)O1 (configuration not stated) | > 100 µM (inactive) | > 100 µM (inactive) | > 100 µM (inactive) | > 100 µM (inactive) | > 100 µM (inactive) | – | > 100 µM (inactive) | – | – | – | > 100 µM (inactive) | > 100 µM (inactive) | > 100 µM (inactive) | > 100 µM (inactive) | > 100 µM (inactive) | – | > 100 µM (inactive) | > 100 µM (inactive) | – | > 100 µM (inactive) |
| COc1cc(S(=O)(=O)N/N=C/c2cc(Br)c(O)c(OC)c2)c(OC)cc1NC(C)=O | > 100 µM (inactive) | – | 34.1 µM (inactive) | 80.2 µM (inactive) | – | – | 34 µM (inactive) | > 100 µM (inactive) | 87.7 µM (inactive) | 57.4 µM (inactive) | > 100 µM (inactive) | > 100 µM (inactive) | > 100 µM (inactive) | – | 42.6 µM (inactive) | 80.5 µM (inactive) | 25 µM (inactive) | > 100 µM (inactive) | 41.3 µM (inactive) | > 100 µM (inactive) |
| N=C(N)NS(=O)(=O)c1ccc(Nc2c3ccccc3nc3c(C(=O)Nc4ccc(S(N)(=O)=O)cc4)ccc(Cl)c23)cc1 | > 100 µM (inactive) | > 100 µM (inactive) | > 100 µM (inactive) | > 100 µM (inactive) | > 100 µM (inactive) | – | > 100 µM (inactive) | – | > 100 µM (inactive) | – | > 100 µM (inactive) | > 100 µM (inactive) | > 100 µM (inactive) | > 100 µM (inactive) | > 100 µM (inactive) | – | 47.8 µM (inactive) | > 100 µM (inactive) | – | – |

From ChEMBL document CHEMBL1201862, “PubChem BioAssay data set” (2004)
